Experimental findings from US7635592B2, “Tissue engineering scaffolds promoting matrix protein production” (Rice University, priority 2000, dated 2009) are described below.

The subject of assay [1] is Auricular chondrocytes. As to the kind of experiment: Matrix production in the presence of ascorbic acid, auricular chondrocytes. The format is cell-based. As for the experimental part: (§1) Aortic smooth muscle cells and auricular chondrocytes were grown on tissue culture polystyrene with and without 50 μg/ml ascorbic acid added to the media. ECM protein production by the cells over a 2-day time period was determined by examining the amount of ^3H-glycine incorporated into the ECM elaborated by the cells.

Assay [2] deals with Aortic smooth muscle cells. As to the kind of experiment: Matrix production in the presence of ascorbic acid, aortic smooth muscle cells. The format is cell-based. The note with it: SMCs. As for the experimental part:
as §1

Assay [3] has as its system SMCs. As to the kind of experiment: Matrix protein production on peptide-modified glass surfaces (3H-glycine incorporation into ECM). Particulars: for increase in matrix production per cell over that produced when no TGF-β was added: 0.04 pmol/ml (1 ng/ml) soluble TGF-β in the media, 2 days. It counts as cell-based, Wistar-Kyoto rats. The text has this:
(§2) Chemicals were obtained from Sigma Chemical Co. (St. Louis, Mo.) unless otherwise stated. SMCs from the thoracic aorta of Wistar-Kyoto rats were isolated and characterized as previously described by Scott-Burden, et al., Hypertension 13:295-305 (1989). Human aortic smooth muscle cells (HASMCs) were obtained from Clonetics (San Diego, Calif.). Both SMCs and HASMCs were maintained on Minimal Essential Medium Eagle supplemented with 10% fetal bovine serum (FBS; BioWhittaker, Walkersville, Md.), 2 mM L-glutamine, 500 units penicillin and 100 mg/l streptomycin (MEM). Cells were incubated at 37° C. in a 5% CO2 environment.
Peptides used in this study were RGDS (SEQ ID NO:1), VAPG (SEQ ID NO:2), and KQAGDV (SEQ ID NO:3) (Research Genetics, Huntsville, Ala.). RGES (SEQ ID NO:4) was used as a non-adhesive control peptide. The peptides were acetylated and coupled to aminophase glass slides as previously described by Mann, et al., Biomaterials 20:2281-2286 (1999). Briefly, aminophase slides were prepared by incubating glass slides with 3-aminopropyltriethoxysilane in dry acetone at 37° C. overnight. Acetylated peptides were then coupled to the slides using 1-ethyl-3-(3-dimethylaminopropyl) carbodiimide (EDAC) chemistry. Slides were sterilized under UV light overnight prior to use.
Matrix protein production was evaluated as previously described by Mann (1999). Suspensions of SMCs were prepared in MEM supplemented with 5 μg/ml ascorbic acid at a concentration of 40,000 cells/ml. For samples receiving TGF-β, 0.04 pmol/ml (1 ng/ml) unmodified TGF-β or 0.04 pmol/ml acryloyl-PEG-TGF-β was added to the media. Cell suspensions to be used for measurement of ECM protein production were also supplemented with 1 μCi/ml ^3H-glycine (40 Ci/mmol). The glass slides were attached to FlexiPerm strips in QuadriPerm Cell Culture Vessels (Heraeus, Osterode am Harz, Germany) to create eight wells (1.11×0.79×0.79 cm) on each slide. Four of the wells on each slide were utilized to measure ECM production, while the remaining four wells were utilized for cell number determination and were cultured in the absence of ^3H-glycine. Cell number was determined after 2 days of culture by preparing single cell suspensions using trypsin and counting cells using a Coulter counter (Multisizer #0646, Coulter Electronics, Hialeah, Fla.).
To evaluate synthesis of ECM proteins, the cell growth media was supplemented with ^3H-glycine, as described above. Two days following ^3H-glycine addition, cells were removed non-enzymatically with 25 mM ammonium hydroxide, then rinsed with 70% ethanol and dried. This process leaves intact the ECM elaborated by cells during culture (Jones, et al., Proc. natl. Acad. Sci. USA 76:353-357 (1979)). Sequential enzyme digestion was used as previously described by Mann (1999) to determine the gross composition of the ECM proteins. Briefly, the ECM was digested first with trypsin, followed by elastase, and then collagenase. After the final enzymatic digestion, any material remaining on the substrate was dissolved by incubation with 1 N NaOH. Aliquots were taken from each step of the digest for scintillation counting.

The test system of assay [4] is SMCs. As to the kind of experiment: DNA and hydroxyproline determination in RGDS-containing PEG hydrogels seeded with SMCs. The format is cell-based, Wistar-Kyoto rats. The note with it: 0.04 pmol/ml, 7 days of culture.
Text: as §2, with “environment. […]” for “environment.”
After 7 days of culture, hydrogels were removed from the culture media, weighed, and digested with 1 ml 0.1 N NaOH overnight at 37° C. […] DNA content of the digested, neutralized hydrogels was determined using a fluorescent DNA binding dye, Hoechst 33258 (Molecular Probes, Eugene, Oreg.). Fluorescence of the samples was determined using a fluorometer (VersaFluor, Bio-Rad Laboratories, Hercules, Calif.) with excitation filter at 360 nm and emission filter at 460 nm, and compared to fluorescence of calf thymus DNA standards.
Hydroxyproline concentration was determined by oxidation with chloramine T (ICN Biomedicals, Aurora, Ohio) and development with p-dimethylaminobenzaldehyde (ICN Biomedicals) (Woessner, et al. Arch. Biochem. Biophys. 93:440-447 (1961)). […]

Assay [5] deals with Auricular chondrocytes. As to the kind of experiment: Dose response of auricular chondrocytes to TGF-β on tissue culture polystyrene. The format is cell-based. As for the experimental part: Auricular chondrocytes were grown on tissue culture polystyrene with varying amounts of TGF-β added to the media: 0, 1, 5, 10, 25, or 100 ng/ml. ECM protein production by the cells over a 2-day time period was determined by examining the amount of ^3H-glycine incorporated into the ECM elaborated by the cells.

Assay [6] concerns Aortic smooth muscle cells. As to the kind of experiment: Dose response of aortic smooth muscle cells to TGF-β on RGDS-coupled aminophase glass. The format is cell-based. As for the experimental part: Aortic smooth muscle cells were grown on aminophase glass that had 0.5 nmol/cm^2 RGDS (SEQ ID NO:1) covalently coupled to the glass. TGF-β was added to the media at 0, 1, or 5 ng/ml (0, 4×10^−5, 2×10^−4 nmol/ml). ECM protein production by the cells over a 2-day time period was determined by examining the amount of ^3H-glycine incorporated into the ECM elaborated by the cells.

The mark [7] stands for this setting: 50 μg/ml ascorbic acid in the media, 2 days.
Setting [8] is: 50 μg/ml ascorbic acid, over 2 days.
Setting [9] is: RGDS-modified glass surfaces, 0.04 pmol/ml in the media.

As for `O=C1O[C@H]([C@@H](O)CO)C(O)=C1O` [ascorbic acid], the “ECM protein production per cell” value (in the assay with Auricular chondrocytes [1] (setting [7]); in assay [2] (setting [7])) was “increased” throughout. The “cell numbers (proliferation)” value (in the assay on Auricular chondrocytes [1] (setting [8]); in assay [2] (setting [8])) was “did not increase” throughout.
Turning to “acryloyl-PEG-TGF-β [polymer-conjugated TGF-β]”, in the assay on SMCs [3] (setting [9]), the “matrix production compared with absence of TGF-β” value is given as “greater amounts of matrix” and the “matrix production compared with unmodified TGF-β” value is “less matrix was produced”.
As to transforming growth factor-beta [TGF-β], in the assay with SMCs [4], the “hydroxyproline (collagen) production compared with no TGF-β” value is reported as “More hydroxyproline”. Also, the entries for the “increase in matrix production per cell over that produced when no TGF-β was added” value in the assay with SMCs [3] (KQAGDV surfaces), with SMCs [3] (RGDS surfaces) and in the assay on SMCs [3] (VAPG surfaces) were 104%, 224% and 20%, respectively. Further, the “matrix production compared with the non-adhesive control (RGES)” value with SMCs [3] (RGDS and KQAGDV modified surfaces, 1 ng/ml TGF-β in the media) is “increased over that seen with the non-adhesive control”. The “matrix production compared with absence of TGF-β” value in the assay with SMCs [3] (setting [9]) is “greater amounts of matrix”. In addition, the “ECM protein production per cell” value with Auricular chondrocytes [5] (TGF-β in the media at concentrations above 1 ng/ml, 2 days) is “increased”. The “cell numbers (proliferation)” value with Auricular chondrocytes [5] (TGF-β up to 100 ng/ml, over 2 days) was “did not increase”; in assay [6] (TGF-β 1 or 5 ng/ml, over 2 days), “did not increase”. Also, in the assay with Auricular chondrocytes [5] (auricular chondrocytes, 2 days), the “optimal concentration for ECM protein production per cell” value turned out to be 25 ng/mL. For the same compound, the “ECM protein production per cell (% of control)” value in assay [6] (TGF-β in the media at both 1 and 5 ng/ml, 2 days) is reported as “increased”. For the same compound, the “optimal concentrations to induce ECM production” value in assay [6] (aortic smooth muscle cells) is “one and five”.
